Data as given in US20110257171A1, “NOVEL IMIDAZO[1,2-A]PYRIDINE DERIVATIVES, METHOD FOR THE PREPARATION THEREOF, USE THEREOF AS MEDICAMENTS, PHARMACEUTICAL COMPOSITIONS AND NOVEL USE IN PARTICULAR AS MET INHIBITORS” (SANOFI-AVENTIS, priority 2008, published 2011).
Counter-ions that a name gives are not always drawn.

What was measured:
[1] = system: HCT116 cells and MKN45 cells; assay: Test C: measurement of cell proliferation by 14C-thymidine pulse; assay type: cell-based; conditions: 14C-thymidine incorporation, 96 h of treatment; cell line not given
Experimental: The cells are seeded into Cytostar 96-well plates in 180 μl for 4 hours at 37° C. and 5% CO2: HCT116 cells in a proportion of 2500 cells per well in DMEM medium+10% foetal calf serum+1% L-glutamine, and MKN45 cells in a proportion of 7500 cells per well in RPMI medium+10% foetal calf serum+1% L-glutamine. After these 4 hours of incubation, the products are added in 10 μl as a […] concentrated solution according to the dilution method mentioned for the ELISA. The products are tested at 10 concentrations in duplicate from 10 000 nM to 0.3 nM with an increment of 3.
After treatment for 72 h, 10 μl of ^14C-thymidine at 10 μCi/ml are added so as to obtain 0.1 μCi per well. The ^14C-thymidine incorporation is measured on a Micro-Beta machine (Perkin-Elmer) after 24 hours of pulse and 96 h of treatment.
All the steps of the assay are automated on BIOMEK 2000 or TECAN stations.

MET [2] = target: T1, MET (Homo sapiens, UniProt P08581); assay: Test A: HTRF MET assay in 96-well format; assay type: biochemical; set-up: The His-Tev-MET (956-1390) recombinant DNA in pFastBac (Invitrogen) is transfected into insect cells; His (N, cleaved yes); Tev cleavage site (N); made in house; host or cells: SF21 insect cells (baculovirus, pFastBac); conditions: MET 5 nM, 10 μM ATP
Experimental: The His-Tev-MET (956-1390) recombinant DNA in pFastBac (Invitrogen) is transfected into insect cells and, after several viral amplification steps, the final baculovirus stock is tested for the expression of the protein of interest.
After infection for 72 h at 27° C. with the recombinant virus, SF21 cell cultures are harvested by centrifugation and the cell pellets are stored at −80° C.
The cell pellets are resuspended in the lysis buffer (buffer A [50 mM HEPES, pH 7.5, 250 mM NaCl, 10% glycerol, 1 mM TECP]; +cocktail of protease inhibitors, Roche Diagnostics, without EDTA, ref 1873580), stirred at 4° C. until the mixture is homogeneous, and then lysed mechanically using a “Dounce” type apparatus.
After centrifugation, the lysis supernatant is incubated for 2 h at 4° C. with nickel chelate resin (His-Trap 6 Fast Flow™, GE HealthCare). After washing with 20 volumes of buffer A, the suspension is packed into a column, and the proteins are eluted with a gradient of buffer B (buffer A+290 mM imidazole).
The fractions containing the protein of interest, for the purpose of electrophoretic analysis (SDS PAGE), are combined, concentrated by ultrafiltration (10 kDa cut-off) and injected onto an exclusion chromatography column (Superdex® 200, GE HealthCare) equilibrated in buffer A.
After enzymatic cleavage of the histidine tag, the protein is reinjected onto a new IMAC nickel chelate chromatography column (His-Trap 6 Fast Flow™ GE HealthCare) equilibrated in buffer A. The fractions eluted with a gradient of buffer B and containing the protein of interest after electrophoresis (SDS PAGE) are finally combined and stored at −80° C.
For the production of autophosphorylated protein, the previous fractions are incubated for 1 h at ambient temperature after the addition of 2 mM ATP, 2 mM MgCl2 and 4 mM Na3VO4. After the reaction has been stopped with 5 mM of EDTA, the reaction mixture is injected onto a HiPrep desalifying column (GE HealthCare) pre-equilibrated in buffer A+4 mM Na3VO4, and the fractions containing the protein of interest (SDS PAGE analysis) are combined and stored at −80° C. The degree of phosphorylation is verified by mass spectrometry (LC-MS) and by peptide mapping.
MET at a final concentration of 5 nM is incubated in a final volume of 50 μl of enzymatic reaction in the presence of the test molecule (for a final concentration range of from 0.17 nM to 10 μM, 3% DMSO final concentration) in 10 mM MOPS buffer, pH 7.4, 1 mM DTT, 0.01% Tween 20. The reaction is initiated with the substrate solution to obtain final concentrations of 1 μg/ml poly-(GAT), 10 μM ATP and 5 mM MgCl2. After incubation for 10 min at ambient temperature, the reaction is stopped with a 30 μl mix so as to obtain a final solution of 50 mM Hepes, pH 7.5, 500 mM potassium fluoride, 0.1% BSA and 133 mM EDTA in the presence of 80 ng of streptavidin 61 SAXLB Cis-Bio Int. and 18 ng of anti-phosphotyrosine Mab PT66-Europium Cryptate per well. After incubation for 2 hours at ambient temperature, the reading is taken at 2 wavelengths, 620 nm and 665 nm, on a reader for the TRACE/HTRF technique, and the % inhibition is calculated from the 665/620 ratios.
Target sequence in this assay (P08581 956-1390): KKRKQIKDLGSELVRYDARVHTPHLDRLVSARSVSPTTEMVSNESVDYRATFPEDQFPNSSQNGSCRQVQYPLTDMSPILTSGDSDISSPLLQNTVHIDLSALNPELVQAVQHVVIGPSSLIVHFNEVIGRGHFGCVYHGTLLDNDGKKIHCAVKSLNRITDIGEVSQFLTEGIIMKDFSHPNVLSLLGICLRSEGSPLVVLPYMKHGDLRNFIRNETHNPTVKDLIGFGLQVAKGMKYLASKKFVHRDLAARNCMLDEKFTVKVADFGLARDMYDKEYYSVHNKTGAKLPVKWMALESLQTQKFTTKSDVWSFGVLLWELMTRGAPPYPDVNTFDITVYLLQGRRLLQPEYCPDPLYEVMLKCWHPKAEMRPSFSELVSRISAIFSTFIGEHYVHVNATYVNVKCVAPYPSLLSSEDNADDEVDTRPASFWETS

MET [3] = target: T1, MET; assay: Test B: inhibition of the autophosphorylation of MET, ELISA technique (pppY1230, 1234, 1235) in MKN45 cells; assay type: cell-based; set-up: endogenous in cells; host or cells: MKN45 cells; conditions: 1 h treatment, phosphoMET ELISA
Experimental: B) Test B: Inhibition of the Autophosphorylation of Met; ELISA Technique (pppY1230, 1234, 1235) a) Cell lysates: MKN45 cells are seeded into 96-well plates (cell coat BD polylysine) at 20 000 cells/well in 200 μl of RPMI medium+10% FCS+1% L-glutamine. They are left to adhere for 24 hours in an incubator.
The cells are treated the day after seeding with the products at 6 concentrations, in duplicate, for 1 h. At least 3 control wells are treated with the same final amount of DMSO.
Product dilution: Stock at 10 mM in pure DMSO—range from 10 mM to 30 μM with an increment of 3 in pure DMSO—intermediate dilutions to 1/50 in culture medium and then removal of 10 μl added directly to the cells (200 μl): final range of 10 000 to 30 nM.
At the end of the incubation, the supernatant is carefully removed and rinsing is performed with 200 μl of PBS. Next, 100 μl of lysis buffer are placed directly in the wells on ice and incubated at 4° C. for 30 minutes. Lysis buffer: 10 mM Tris HCl, pH 7.4, 100 mM NaCl, 1 mM EDTA, 1 mM EGTA, 1% Triton X-100, 10% glycerol, 0.1% SDS, 0.5% deoxycholate, 20 mM NaF, 2 mM Na3VO4, 1 mM PMSF and cocktail of antiproteases.
The 100 μl of lysates are transferred into a V-bottomed polypropylene plate and the ELISA is performed immediately, or the plate is frozen at −80° C.
70 μl of kit dilution buffer+30 μL of cell lysate, or 30 μl of lysis buffer for the blanks, are added to each well of the kit plate. Incubation is carried out for 2 h with gentle agitation at ambient temperature.
The wells are rinsed 4 times with 400 μl of kit washing buffer. Incubation is carried out with 100 μl of anti-phospho MET antibody for 1 hour at ambient temperature.
The wells are rinsed 4 times with 400 μl of kit washing buffer. Incubation is carried out with 100 μl of anti-rabbit HRP antibody for 30 minutes at ambient temperature (except for the wells of chromogen alone).
The wells are rinsed 4 times with 400 μl of kit washing buffer. 100 μL of chromogen are introduced and incubation is carried out for 30 minutes in the dark at ambient temperature.
The reaction is stopped with 100 μl of stop solution. The plate is read without delay at […], 0.1 second on a Wallac Victor plate reader.
Target sequence in this assay (P08581 25-1390): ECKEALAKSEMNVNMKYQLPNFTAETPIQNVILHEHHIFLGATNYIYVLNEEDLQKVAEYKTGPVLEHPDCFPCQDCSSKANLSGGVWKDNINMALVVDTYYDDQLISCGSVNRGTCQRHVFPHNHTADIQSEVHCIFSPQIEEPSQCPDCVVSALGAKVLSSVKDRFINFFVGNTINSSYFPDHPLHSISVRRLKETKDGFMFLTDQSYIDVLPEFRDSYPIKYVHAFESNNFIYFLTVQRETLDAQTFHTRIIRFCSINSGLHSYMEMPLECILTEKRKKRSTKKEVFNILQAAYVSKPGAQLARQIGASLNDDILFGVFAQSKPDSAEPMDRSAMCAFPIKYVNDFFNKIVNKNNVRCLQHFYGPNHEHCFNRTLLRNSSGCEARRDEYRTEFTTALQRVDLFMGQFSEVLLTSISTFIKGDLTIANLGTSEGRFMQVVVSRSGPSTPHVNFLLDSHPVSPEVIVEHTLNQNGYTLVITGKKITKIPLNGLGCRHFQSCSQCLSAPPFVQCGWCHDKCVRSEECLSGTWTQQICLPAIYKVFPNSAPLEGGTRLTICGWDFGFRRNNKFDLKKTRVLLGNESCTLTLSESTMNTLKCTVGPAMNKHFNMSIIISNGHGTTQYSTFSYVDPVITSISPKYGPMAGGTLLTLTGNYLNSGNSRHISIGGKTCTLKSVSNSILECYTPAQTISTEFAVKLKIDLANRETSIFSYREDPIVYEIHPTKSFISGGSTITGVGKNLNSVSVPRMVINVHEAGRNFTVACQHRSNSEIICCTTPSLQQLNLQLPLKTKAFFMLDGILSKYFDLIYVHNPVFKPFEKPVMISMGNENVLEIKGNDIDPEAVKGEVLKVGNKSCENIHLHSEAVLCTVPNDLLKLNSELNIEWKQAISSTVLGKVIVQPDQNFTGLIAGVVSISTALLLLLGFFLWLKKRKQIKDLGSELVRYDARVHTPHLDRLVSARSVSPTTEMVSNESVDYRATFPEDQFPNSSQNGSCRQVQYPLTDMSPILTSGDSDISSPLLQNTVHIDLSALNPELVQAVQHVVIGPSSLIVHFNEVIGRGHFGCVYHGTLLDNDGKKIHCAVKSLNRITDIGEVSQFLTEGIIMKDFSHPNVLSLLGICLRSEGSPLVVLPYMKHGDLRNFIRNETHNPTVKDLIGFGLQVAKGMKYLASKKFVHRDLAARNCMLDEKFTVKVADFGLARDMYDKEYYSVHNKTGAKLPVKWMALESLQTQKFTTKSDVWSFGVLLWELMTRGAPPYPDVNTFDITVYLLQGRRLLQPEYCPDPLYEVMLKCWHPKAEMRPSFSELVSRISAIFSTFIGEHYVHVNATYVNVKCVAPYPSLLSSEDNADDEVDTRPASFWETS

In the case of `O=C(Nc1nc2ccc(Sc3cnc4ccc(-c5cnn(C6CCNCC6)c5)cn34)cc2s1)C1CC1` (as salt: hydrochloride) [Example 12, N-[6-({6-[1-(piperidin-4-yl)1H-pyrazol-4-yl]imidazo[1,2-a]pyridin-3-yl}sulphanyl)-1,3-benzothiazol-2-yl]cyclopropanecarboxamide], the melting point is reported as 230 °C.

With `O=C(Nc1nc2ccc(Sc3cnc4ccccn34)cc2s1)C1CC1` [Example 1, N-{[6-(imidazo[1,2-a]pyridin-3-yl)sulphanyl]-1,3-benzothiazol-2-yl}cyclopropanecarboxamide] the IC50 [1] was less than 1000 nM, the IC50 (MET [2]) was less than 100 nM and the IC50 (MET [3]) was less than 100 nM.

Molecule `Nc1nc2ccc(Sc3cnc4ccc(-c5ccc(F)cc5)cn34)cc2s1` [Example 2, 6-{[6-(4-fluorophenyl)imidazo[1,2-a]pyridin-3-yl]sulphanyl}-1,3-benzothiazol-2-amine] has an IC50 [1] of less than 1000 nM, a melting point of 258 °C and an IC50 (MET [2]) of less than 100 nM. It also gave an IC50 (MET [3]) greater than 500 nM.

Molecule `O=C(Nc1nc2ccc(Sc3cnc4ccc(-c5ccc(F)cc5)cn34)cc2s1)C1CC1` [Example 3, N-(6-{[6-(4-fluorophenyl)imidazo[1,2-a]pyridin-3-yl]sulphanyl}-1,3-benzothiazol-2-yl)cyclopropanecarboxamide] has an IC50 [1] of less than 1000 nM, a melting point of 265 °C and an IC50 (MET [2]) of less than 100 nM. It also gave an IC50 (MET [3]) of less than 100 nM.

`CC(=O)Nc1nc2ccc(Sc3cnc4ccc(-c5ccc(F)cc5)cn34)cc2s1` [Example 4, N-(6-{[6-(4-fluorophenyl)imidazo[1,2-a]pyridin-3-yl]sulphanyl}-1,3-benzothiazol-2-yl)acetamide] showed an IC50 [1] of less than 1000 nM, an IC50 (MET [2]) of less than 100 nM and an IC50 (MET [3]) of less than 100 nM.

`COCCNC(=O)Nc1nc2ccc(Sc3cnc4ccc(-c5ccc(F)cc5)cn34)cc2s1` [Example 5, 1-(6-{[6-(4-fluorophenyl)imidazo[1,2-a]pyridin-3-yl]sulphanyl}-1,3-benzothiazol-2-yl)-3-(2-methoxyethyl)urea] gave an IC50 [1] of less than 1000 nM, a melting point greater than 260 °C and an IC50 (MET [2]) of less than 100 nM. For the same molecule, the IC50 (MET [3]) was less than 100 nM.

`O=C(NCCN1CCOCC1)Nc1nc2ccc(Sc3cnc4ccc(-c5ccc(F)cc5)cn34)cc2s1` [Example 6, 1-(6-{[6-(4-fluorophenyl)imidazo[1,2-a]pyridin-3-yl]sulphanyl}-1,3-benzothiazol-2-yl)-3-[2-(morpholin-4-yl)ethyl]urea] gave an IC50 [1] of less than 1000 nM, an IC50 (MET [2]) of less than 100 nM and an IC50 (MET [3]) of less than 100 nM.

In the case of `Cn1cc(-c2ccc3ncc(Sc4ccc5nc(NC(=O)C6CC6)sc5c4)n3c2)cn1` [Example 7, N-(6-{[6-(1-methyl-1H-pyrazol-4-yl)imidazo[1,2-a]pyridin-3-yl]sulphanyl}-1,3-benzothiazol-2-yl)cyclopropanecarboxamide], the IC50 [1] is reported as less than 1000 nM, the IC50 (MET [2]) is reported as less than 100 nM and the IC50 (MET [3]) is reported as less than 100 nM.

For `O=C(Nc1nc2ccc(Sc3cnc4ccc(-c5cn[nH]c5)cn34)cc2s1)C1CC1` [Example 8, N-(6-{[6-(1H-pyrazol-4-yl)imidazo[1,2-a]pyridin-3-yl]sulphanyl}-1,3-benzothiazol-2-yl)cyclopropanecarboxamide], the IC50 [1] was less than 1000 nM, the IC50 (MET [2]) was less than 100 nM and the IC50 (MET [3]) was less than 100 nM.

In the case of `O=C(Nc1nc2ccc(Sc3cnc4ccc(-c5cccc(F)c5)cn34)cc2s1)C1CC1` [Example 9, N-(6-{[6-(3-fluorophenyl)imidazo[1,2-a]pyridin-3-yl]sulphanyl}-1,3-benzothiazol-2-yl)cyclopropanecarboxamide], the IC50 [1] is reported as less than 1000 nM, the melting point is reported as greater than 260 °C and the IC50 (MET [2]) is reported as less than 100 nM. For the same molecule, the IC50 (MET [3]) was less than 100 nM.

In the case of `Cc1ccc(-c2ccc3ncc(Sc4ccc5nc(NC(=O)C6CC6)sc5c4)n3c2)cc1F` [Example 10, N-(6-{[6-((3-fluoro-4-methyl)phenyl)imidazo[1,2-a]pyridin-3-yl]sulphanyl}-1,3-benzothiazol-2-yl)cyclopropanecarboxamide], the IC50 [1] is reported as less than 1000 nM, the melting point is reported as greater than 260 °C and the IC50 (MET [2]) is reported as less than 100 nM. For the same molecule, the IC50 (MET [3]) was less than 100 nM.

For `CC(C)(C)OC(=O)N1CCC(n2cc(-c3ccc4ncc(Sc5ccc6nc(NC(=O)C7CC7)sc6c5)n4c3)cn2)CC1` [Example 11, tert-butyl 4-{4-[3-({2-[(cyclopropylcarbonyl)amino]-1,3-benzothiazol-6-yl}sulphanyl)imidazo[1,2-a]pyridin-6-yl]-1H-pyrazol-1-yl}piperidine-1-carboxylate], the IC50 [1] was less than 1000 nM, the melting point was 247 °C and the IC50 (MET [2]) was less than 100 nM. For the same molecule, the IC50 (MET [3]) was less than 100 nM.

In the case of `O=C(Nc1nc2ccc(Sc3cnc4ccc(-c5cnn(C6CCNCC6)c5)cn34)cc2s1)C1CC1` [Example 12, N-[6-({6-[1-(piperidin-4-yl)1H-pyrazol-4-yl]imidazo[1,2-a]pyridin-3-yl}sulphanyl)-1,3-benzothiazol-2-yl]cyclopropanecarboxamide], the IC50 [1] is reported as less than 1000 nM, the IC50 (MET [2]) is reported as less than 100 nM and the IC50 (MET [3]) is reported as less than 100 nM.
